Numbers after ± are expanded uncertainties.
Experiments:
[1] = 101.33 kPa, Crystal, radial heat flow
[2] = xn = mol fraction of the nth substance listed; details: 101 kPa, radial heat flow

[Bi] [bismuth] gave a thermal conductivity ([1]; 382.65 K) of 8.35 ± 1.2 W/m/K and a thermal conductivity ([1]; 418.7 K) of 8.12 ± 1.1 W/m/K.

[Cd] [cadmium] + [Bi] gave a thermal conductivity ([2]; 418.7 K, Crystal, x2 = 0.5504) of 12.46 ± 1.7 W/m/K and a thermal conductivity ([2]; 418.7 K, Liquid, x2 = 0.5504) of 10.06 ± 1.4 W/m/K.

[In] [indium] + [Bi] gave a thermal conductivity ([2]; 382.65 K, Crystal, x2 = 0.527) of 13.25 ± 1.9 W/m/K and a thermal conductivity ([2]; 382.65 K, Liquid, x2 = 0.527) of 10.6 ± 1.5 W/m/K.

Reference: the NIST ThermoML archive (doi:10.1016/j.fluid.2010.02.029)
